Reference: the supplement of paper PMC11208160

Test: recombinant UMI read abundance after kanamycin selection (control-corrected) (log10(CPM+1)); higher = more efficient recombination; extreme values may be limits of the assay; sequences stand for … in AGTGCAGAGAAAATCGGCCAGTTTTCTCTGCCTGCAGTCCGCATGCCGTGGGACCCCTTGGGTTCTAACCTGTTGCCTAGATTTATGCAGCGGACTGCCTTTCTCCCAAAGTGATAAACCGG…AGGTTGGTTTCACT; site = the 11-nt donor
Procedure, shortened: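 Each donor and donor-binding-loop pair was tracked by a 12-nt UMI on a plasmid carrying a promoterless kanamycin gene. With a second plasmid supplying a fixed target and T7-inducible IS621 bridge recombinase, the pool was plated in Escherichia coli on IPTG (0.07 mM) plus kanamycin or unselected. Sequencing of recombinant UMIs across the donor–target junction gave counts expressed as log10(CPM+1) after replicate averaging and control-derived scaling.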
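Further: IS621 bridge recombinase in Escherichia coli cells against a fixed T5 target plasmid.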

Sequence | recombinant UMI read abundance (log10)
GGAGTGGCATGGACCGGTTTTCCCGGTAATCCGTATTTGGT (site GGAGTAGCTAC) | 0.606
GGAGTGGCATGGACCGGTTTTCCCGGTAATCCGTATTTGGT (site GGAGTCGCTAC) | 0.014
GGAGTGGCATGGACCGGTTTTCCCGGTAATCCGTATTTGGT (site GGAGTGACTAC) | 0.976
GGAGTGGCATGGACCGGTTTTCCCGGTAATCCGTATTTGGT (site GGAGTGCCTAC) | 0.377
GGAGTGGCATGGACCGGTTTTCCCGGTAATCCGTATTTGGT (site GGAGTGGCTAA) | 0.0703
GGAGTGGCATGGACCGGTTTTCCCGGTAATCCGTATTTGGT (site GGAGTGGCTAC) | 0.575
GGAGTGGCATGGACCGGTTTTCCCGGTAATCCGTATTTGGT (site GGAGTGGCTAG) | 1.26
GGAGTGGCATGGACCGGTTTTCCCGGTAATCCGTATTTGGT (site GGAGTGGCTAT) | 0.592
GGAGTGGCATGGACCGGTTTTCCCGGTAATCCGTATTTGGT (site GGAGTGGCTCC) | 0.0114
GGAGTGGCATGGACCGGTTTTCCCGGTAATCCGTATTTGGT (site GGAGTGGCTGC) | 0.537
GGAGTGGCATGGACCGGTTTTCCCGGTAATCCGTATTTGGT (site GGAGTGGCTTC) | 0.0104
GGAGTGGCATGGACCGGTTTTCCCGGTAATCCGTATTTGGT (site GGAGTGTCTAC) | 1.1
GGAGTGGCATGGACCGGTTTTCCCGGTAATCCGTATTTGGT (site GGAGTTGCTAC) | 0
GGAGTGGCATGGACCGGTTTTCCCGGTAATCCGTATTTGGT (site GGATTGGCTAC) | 0.458
GGAGTGGCATGGACCGGTTTTCCCGGTAATCCGTATTTGGT (site GGCGTGGCTAC) | 0.0051
GGAGTGGCATGGACCGGTTTTCCCGGTAATCCGTATTTGGT (site GGGGTGGCTAC) | 0.0193

Sequence | recombinant UMI read abundance (log10)
GGAGTGGCATGGACCGGTTTTCCCGGTAATCCGTATTTGGT (site GGTGTGGCTAC) | 0.564
GGAGTGGCATGGACCGGTTTTCCCGGTAATCCGTATTTGGT (site GTAGTGGCTAC) | 0.294
GGAGTGGCATGGACCGGTTTTCCCGGTAATCCGTATTTGGT (site TGAGTGGCTAC) | 0.32
GGATCATCATGGACCGGTTTTCCCGGTAATCCGTATTTGAT (site CGATCATCTAG) | 0
GGATCATCATGGACCGGTTTTCCCGGTAATCCGTATTTGAT (site GGATCATCTAT) | 0.00412
GGATCATCATGGACCGGTTTTCCCGGTAATCCGTATTTGCT (site AGATCATCTAG) | 0
GGATCATCATGGACCGGTTTTCCCGGTAATCCGTATTTGCT (site CGATCATCTAG) | 0.511
GGATCATCATGGACCGGTTTTCCCGGTAATCCGTATTTGCT (site GGATCATCTAG) | 1.59
GGATCATCATGGACCGGTTTTCCCGGTAATCCGTATTTGCT (site TGATCATCTAG) | 0.91
GGATCCCCATGGACCGGTTTTCCCGGTAATCCGTATTTGCT (site GGATCCCCTAG) | 0.0066
GGATCGACATGGACCGGTTTTCCCGGTAATCCGTATTTGTT (site AGATCGACTAA) | 0.0171
GGATCGACATGGACCGGTTTTCCCGGTAATCCGTATTTGTT (site CGATCGACTAA) | 0.00751
GGATCGACATGGACCGGTTTTCCCGGTAATCCGTATTTGTT (site GGATCGACTAA) | 0.7
GGATCGACATGGACCGGTTTTCCCGGTAATCCGTATTTGTT (site TGATCGACTAA) | 0.00972
GGATCGGCATGGACCGGTTTTCCCGGTAATCCGTATTTGAC (site GGATCGGCTGT) | 1.87
GGATGATCATGGACCGGTTTTCCCGGTAATCCGTATTTGCT (site CGATCATCTAG) | 0
